Reference: patent US10253085B2, “CD31 peptides for the treatment of thrombotic or autoimmune disorders” (INSERM (INSTITUT NATIONAL DE LA SANTE ET DE LA RECHERCHE …, priority 2008, dated 2019)
Residues, ends and D or L forms follow the SMILES beside them.

How the values were obtained:
[1] = system: spleen cells from C57Bl/6 (CD31^+/+) mice; assay: Proliferation in response to TCR stimulation, CD31+/+ spleen cells; assay type: cell-based, mouse; details: peptide 25, 50, 100 μM, scramble peptide 100 μM
Experimental: CD8^+ T cell-mediated cytolytic activity against allogeneic mouse aortic smooth muscle cells and measurement of macrophage gelatinase (MMP-2/9) activity were performed as previously described for human cells in Caligiuri et al. (2006 Arterioscler Thromb Vasc Biol 26:618-623) using kits and reagents from Invitrogen. Briefly, primary cultures of FVB/N mouse aorta smooth muscle cells were labelled with the lipophylic tracer DIO (green) and co-cultured for 3 hours with CD8+ T cell-enriched spleen cells from C57Bl/6 mice (n=3 scramble peptide and n=3 peptide 551-574, 50 μM). Cytolysis was evaluated by intracellular accumulation of propidium iodide (PI). Cells were analysed by flow cytometry and the % of cytolysis was calculated by expressing the number of dead (PI+) cells among the target (DIO+) cells. Intracellular MMP-2/9 (gelatinase) activity was measured by flow cytometry in 7-day bone-marrow derived macrophages from C57Bl/6 mice (n=3 scramble peptide and n=3 peptide 551-574, 50 μM) three hours after the incorporation of OregonGreen® gelatine (MFI). T-cell proliferation was performed using either human peripheral blood mononuclear cells of spleen cells from C57Bl/6 (CD31^+/+) and CD31^−/− mice (Charles River France) as previously described (Caligiuri et al. 2005 Arterioscler Thromb Vasc Biol 25:1659-1664). Briefly, cells were plated in triplicates at 0.2×10^6 cells/well in a U bottom 96-well plate in complete medium (RPMI 1640, 1% pyruvate, 1% glutamine, 1% penicillin-streptomicyne-fungizone, 10% decomplemented fetal calf serum, all from Invitrogen) containing 1 μg/ml anti-mouse CD3/CD28 or 5 μg/ml anti-human CD3 antibodies (BD) as appropriate. CD31 (551-574) and scramble peptide at 25, 50 and 100 μM final concentration were deposited in the wells just before cell plating. Plated cells were cultured for 72 hours in 5% CO2 at 37° C. (^3H) thymidine (0.5 μCi/well) was added for the last 16 hours and proliferation evaluated using a Tomtec harvester and analysis on a Wallac micro beta counter. Data are expressed as mean±SEM of cpm in triplicates.

[2] = system: BALB/c mice primed with TNCB; assay: Delayed type hypersensitivity (DTH) suppression model; assay type: in vivo, mouse
Experimental: Delayed type hypersensitivity (DTH) suppression was evaluated as described in the “Current Protocols in Immunology (2001) 4.0.1-4.0.2 Unit 4.2”. Briefly, TNCB (2-chloro-1,3,5-trinitrobenzene, Fluka #79874) was dissolved in acetone/olive oil (1:1 v/v) at a concentration of 10 mg/ml. BALB/c mice (n=6/group) were primed by painting the shaved regions of the abdomen a with a total 0.2 ml of the preparation (n=6/group). The experiment included 3 groups for peptide 551-574 (10, 50, 100 μM) and 1 group treated with scramble peptide at 100 μM). Five days after priming, 10 μl of the TNCB-solvent mixture was painted on the right pinna, 30 minutes after subcutaneous (interscapolar) administration of the peptide 551-574 or the scramble peptide. Ear thickness increases were calculated by subtracting the thickness of the right and the left pinna of each mouse (right-left/left×100), measured at 24 h with a dial caliper (“Pocotest”, Kroeplin Längenmesstechnick). The measure was performed 5 times on each ear and averaged for further analysis. The immunosuppressive effect of the peptide was calculated as % suppression=(1−ΔTE/ΔTS)×100, where ΔT=(ear thickness 24 hr after elicitation)−(baseline ear thickness), […]. Data are expressed as mean±SEM.

[3] = system: MMP-2/9 (gelatinase) activity in bone-marrow derived macrophages; assay: Macrophage gelatinase (MMP-2/9) activity; assay type: cell-based, mouse; details: peptide 50 μM
Experimental: CD8^+ T cell-mediated cytolytic activity against allogeneic mouse aortic smooth muscle cells and measurement of macrophage gelatinase (MMP-2/9) activity were performed as previously described for human cells in Caligiuri et al. (2006 Arterioscler Thromb Vasc Biol 26:618-623) using kits and reagents from Invitrogen. Briefly, primary cultures of FVB/N mouse aorta smooth muscle cells were labelled with the lipophylic tracer DIO (green) and co-cultured for 3 hours with CD8+ T cell-enriched spleen cells from C57Bl/6 mice (n=3 scramble peptide and n=3 peptide 551-574, 50 μM). Cytolysis was evaluated by intracellular accumulation of propidium iodide (PI). Cells were analysed by flow cytometry and the % of cytolysis was calculated by expressing the number of dead (PI+) cells among the target (DIO+) cells. Intracellular MMP-2/9 (gelatinase) activity was measured by flow cytometry in 7-day bone-marrow derived macrophages from C57Bl/6 mice (n=3 scramble peptide and n=3 peptide 551-574, 50 μM) three hours after the incorporation of OregonGreen® gelatine (MFI). […] (^3H) thymidine (0.5 μCi/well) was added for the last 16 hours and proliferation evaluated using a Tomtec harvester and analysis on a Wallac micro beta counter. Data are expressed as mean±SEM of cpm in triplicates.

[4] = system: C57BL/6J mice immunized with MOG35-55 peptide; assay: Experimental Autoimmune Encephalomyelitis (EAE) model; assay type: in vivo, mouse; details: single peptide shot
Experimental: Twelve-week old female C57BL/6J mice were immunized with 300 μg of MOG35-55 peptide emulsified in Complete Freund's Adjuvant 1:1 by volume containing 800 μg of nonviable desiccated Mycobacterium tuberculosis H37RA. A final volume of 200 μl of the emulsion was injected subcutaneously at 4 sites (50 μl/site) over the flanks. In addition, 300 ng of Pertussis toxin was injected intravenously (retro-orbital plexus) on the same day and 2 days later. Clinical signs of EAE ware assessed daily by the following scoring system: 0, no signs; 1, hindlimb weakness; 2, hindlimb weakness and tail paralysis; 3, hindlimb and tail paralysis; 4, hindlimb and tail paralysis and forelimb weakness; 5, moribund state; and 6, death. The peak (waxing phase) occured around day 21. In this C57BL/6J mouse model, there was no waning phase as assessed in our laboratory up to day 41.
The experiment was carried out with ten mice per group. The mice of each group were treating with either of: • PBS; • PepReg (SEQ ID NO: 3); or • PepScra (SEQ ID NO: 14).
The dosing was of 50 μg of peptide per mice and per day (i.e. about 2 mg/Kg per day). The peptide was administered by a subcutaneous injection.

Question: With `CSCC[C@H](NC(=O)[C@H](CO)NC(=O)[C@@H](N)CO)C(=O)N[C@@H](CCCNC(=N)N)C(=O)N[C@H](C(=O)N[C@@H](CO)C(=O)N1CCC[C@H]1C(=O)N[C@@H](CCCNC(=N)N)C(=O)N[C@@H](CO)C(=O)N[C@@H](CO)C(=O)N[C@H](C(=O)N[C@@H](CC(C)C)C(=O)N[C@@H](C)C(=O)N[C@H](C(=O)N[C@@H](CCCNC(=N)N)C(=O)N[C@H](C(=O)N[C@@H](Cc1ccccc1)C(=O)N[C@@H](CC(C)C)C(=O)N[C@@H](C)C(=O)N1CCC[C@H]1C(=O)N[C@@H](Cc1c[nH]c2ccccc12)C(=O)N[C@@H](CCCCN)C(=O)N[C@@H](CCCCN)C(=O)O)C(C)C)C(C)C)[C@@H](C)O)[C@@H](C)O` [peptide 551-574] (H-SSMRTSPRSSTLAVRVFLAPWKK-OH) as the molecule, how does the “proliferation of CD31+/+ spleen cells in response to TCR stimulation” value [1] read?
Answer: The value was “inhibits in a dose-dependent manner”.

Question: What about the “proliferation of CD31+/+ spleen cells in response to TCR stimulation” value ([1]; listed as mouse CD31 peptide 551-574) of the same molecule?
Answer: Its value is “dose-dependent inhibition”.

Question: And the “immunosuppression in DTH model” value ([2]; single subcutaneous administration of 50 μM)?
Answer: The value was “Effective immunosuppression”.

Question: And the “suppression of distal recall of a hapten-elicited specific immune response (ear thickness)” value ([2]; single subcutaneous administration, peptide 10, 50, 100 μM, scramble 100 μM)?
Answer: The value was “suppressed in a dose-dependent manner”.

Question: And the “activity of matrix degrading enzymes (MMP-2/9) in bone-marrow derived macrophages” value [3]?
Answer: The value was “inhibited”.

Question: What about the “duration of protective effect in EAE” value [4] of the same molecule?
Answer: Its value is “up to 5 days”.
